Experimental data reported in publication PMC9492542, “Brain-restricted mTOR inhibition with binary pharmacology” (Nature, 2022).
Several values for one entry are separate records, joined by “and”; a condition that tells them apart may be missing. Equal values may be shown once. Read-outs that look alike come from different tables or passages of the source.

Columns and labels:
mTOR [1] = assay: Immunoblot analysis of mTOR signalling (p-S6, p-4EBP1) in MCF7 cells, incl. screen for blocking of rapamycin/RapaLink-1; conditions: for blocking of mTOR inhibition by RapaLink-1 in cells: 10 nM RapaLink-1 + 10 µM blocker, immunoblot
FKBP12 = target: T1, FKBP12 (Homo sapiens, UniProt P62942); assay: Competition fluorescence polarization assay with FITC-rapamycin tracer; assay type: binding
T1 construct: His-tag (HRV 3C cleavable) (cleaved yes); made in house; host or cells: Escherichia coli BL21(DE3)
Procedure: Compound binding affinity was determined using a competition fluorescence polarization assay. […] The assay buffer was 20 mM HEPES pH 7.5 and 0.01% Triton X-100. […] Data were fitted to a three-parameter sigmoidal curve to derive IC50 values. Ki of the compounds were calculated using a tool provided by S. Wang’s laboratory (http://www.umich.edu/~shaomengwanglab/software/calc_ki/index.html). Data were plotted in GraphPad Prism 9.0.

human PBMCs = assay: Proliferation of anti-CD3/anti-CD28 stimulated PBMCs (120 h); assay type: cell-based
NFAT = NFAT activation assay (Jurkat-Lucia NFAT luciferase reporter, PMA/ionomycin); assay type: cell-based
Procedure: Jurkat-Lucia NFAT cells were resuspended to 2 × 10^6 cells per ml in fresh growth medium and dispensed in 96-well tissue culture plates (Corning 3904; 180 µl per well). DMSO solutions of test compounds at 100× the test concentrations were added and the cells were incubated for 4 h at 37 °C. A 10× stimulation solution containing phorbol myristate acetate (100 ng ml^–1) and ionomycin (10 µg ml^–1) were added to each well (20 µl per well) except for the negative control wells, which were supplemented with 20 µl medium. Cells were incubated at 37 °C for 12 h. Cells (20 µl per well) were transferred into a white opaque 96-well plate (Corning 3912). TECAN Spark 20M plate reader equipped with an auto-injection system was primed with Lucia luciferase substrate solution and set with the following parameters: 50 µl of injection volume, end-point measurement with a 4-s delay time and 0.1-s integration time. Luciferase activity was measured with the settings above and normalized to DMSO-treated, stimulated cells. Data were plotted in GraphPad Prism 9.0.

U87MG = assay: Orthotopic intracranial U87MG-luciferase glioblastoma xenograft
mTOR [2] = assay: mTOR signalling in mouse whole brain and skeletal muscle after single i.p. dose (immunoblot, insulin stimulated); assay type: in vivo; conditions: for p-4EBP1 Brain, fold relative to no insulin, normalized to GAPDH / p-4EBP1 Muscle, fold relative to no insulin, normalized to GAPDH / p-RPS6 Brain, fold relative to no insulin, normalized to GAPDH / p-RPS6 Muscle, fold relative to no insulin, normalized to GAPDH: RL1 1 mg/kg, RB 40 mg/kg, insulin 250 mU, listed as RB
Procedure: Whole brain and skeletal muscle were analyzed by immunoblot.

GBM43 = assay: Orthotopic intracranial GBM43-luciferase patient-derived glioblastoma xenograft; conditions: GBM43-Luc
[3] = U87MG-Luc, day 0, individual mice
[4] = U87MG-Luc, day 5, individual mice
[5] = U87MG-Luc, day 10, individual mice
[6] = U87MG-Luc, day 15, individual mice
[7] = U87MG-Luc, day 20, individual mice

T1 sequence (P62942 whole entry): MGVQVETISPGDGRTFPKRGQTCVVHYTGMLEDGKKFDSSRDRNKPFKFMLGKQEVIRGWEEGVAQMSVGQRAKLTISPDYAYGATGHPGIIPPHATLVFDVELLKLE

CCON=C1C[C@H](O)[C@@H](C)[C@@H](/C(C)=C/[C@@H]2CC[C@@H](O)[C@H](OC)C2)OC(=O)[C@@H]2CCCCN2C(=O)C(=O)[C@]2(O)O[C@H]([C@@H](OC)C[C@@H](C)C/C(C)=C/[C@H]1CCCc1cccc[n+]1[O-])[C@@H](OC)C[C@H]2C [RapaBlock ethyl oxime] was tested, and the “blocking of mTOR inhibition by RapaLink-1 in cells” value (mTOR [1]) was “less potent at blocking RapaLink-1”, the “blocking of mTOR inhibition by RapaLink-1 in cells” value (mTOR [1]; listed as RapaBlock-Oxime) was “much less effective at blocking the inhibition” and the Ki (FKBP12) was 360 nM.
With CO[C@H]1C[C@@H](C)C/C(C)=C/[C@@H](CCCc2cccc[n+]2[O-])C(=O)C[C@H](O)[C@@H](C)[C@@H](/C(C)=C/[C@@H]2CC[C@@H](O)[C@H](OC)C2)OC(=O)[C@@H]2CCCCN2C(=O)C(=O)[C@]2(O)O[C@H]1[C@@H](OC)C[C@H]2C [RapaBlock] the “shift of RapaLink-1 IC50 for PBMC proliferation by addition of RapaBlock” value (human PBMCs; 5 days) was “more than 100 fold”, the “protection of PBMCs from rapamycin-mediated growth inhibition” value (human PBMCs; compared with protection from RapaLink-1) was “appeared more effective at protecting PBMCs from rapamycin-mediated growth inhibition” and the “relative proliferation compared to DMSO-treated cells” value (human PBMCs; constant 10 µM RapaBlock, low RapaLink-1/rapamycin concentrations) was ~ 100%. For the same molecule, the “NFAT luciferase activity, normalized to DMSO-treated stimulated cells” value (“NFAT luciferase activity, normalized” below) (NFAT; 0.00512 nM) was 93 and 91.3 and 97, the “NFAT luciferase activity, normalized” value (NFAT; 0.0256 nM) was 97.8 and 104.3 and 98.9 and the “NFAT luciferase activity, normalized” value (NFAT; 0.128 nM) was 95.3 and 89 and 97. The “NFAT luciferase activity, normalized” value (NFAT; 0.64 nM) was 97.6 and 92.3 and 99.2, the “NFAT luciferase activity, normalized” value (NFAT; 16 nM) was 100.2 and 101.6 and 105.7 and the “NFAT luciferase activity, normalized” value (NFAT; 80 nM) was 104.1 and 109.3 and 105.3. For the same molecule, the “NFAT luciferase activity, normalized” value (NFAT; 400 nM) was 109.4 and 107.4 and 106.7, the “NFAT luciferase activity, normalized” value (NFAT; 2000 nM) was 112.3 and 110 and 113.9 and the “NFAT luciferase activity, normalized” value (NFAT; 10000 nM) was 112 and 113.2 and 110.3. For the same molecule, the “inhibitory activity for calcineurin” value (NFAT; Fig. 2e) was “does not exhibit any inhibitory activity for calcineurin”, the IC50 (NFAT; Homo sapiens, Jurkat NFAT luciferase, PMA + ionomycin) was over 10000 nM and the “blocking of rapamycin (phospho-S6 signal)” value (mTOR [1]; MCF7, 100:1 stoichiometry RapaBlock:rapamycin) was “restoring the phospho-S6 signal to the same level as untreated cells”. For the same molecule, the “attenuation of RapaLink-1 effects on mTOR signalling” value (mTOR [1]; MCF7, 4 h, with 10 nM RapaLink-1) was “attenuates the pharmacological effects of RapaLink-1 in a dose-dependent manner”, the “effect on mTOR signalling by itself” value (mTOR [1]; cultured cells, up to 10 µM) was “does not affect mTOR signalling by itself” and the “tumour growth and survival” value (U87MG; RapaLink-1 1 mg per kg, RapaBlock 40 mg per kg, i.p. every 5 days) was “no significant effect on either”. The Mouse weight (U87MG; [3]) was 23.7 g and 18.4 g and 20.5 g and 22.9 g and 23.2 g and 19.4 g, the “Tumor size (measured by bioluminescence)” value (U87MG; [3]) was 17700000 and 2260000 and 10400000 and 10700000 and 2010000 and 11600000 and the Mouse weight (U87MG; [4]) was 25.1 g and 20.4 g and 22.3 g and 25.2 g and 24.1 g and 21.1 g. For the same molecule, the “Tumor size (measured by bioluminescence)” value (U87MG; [4]) was 43100000 and 13000000 and 366000 and 28000000 and 11500000 and 3180000, the Mouse weight (U87MG; [5]) was 24.6 g and 21.1 g and 22.5 g and 25.3 g and 23.8 g and 21.3 g and the “Tumor size (measured by bioluminescence)” value (U87MG; [5]) was 1970000 and 19800000 and 27300000 and 73500000 and 25400000 and 8750000. For the same molecule, the Mouse weight (U87MG; [6]) was 24.4 g and 21.8 g and 23 g (2×) and 25 g and 21.9 g, the “Tumor size (measured by bioluminescence)” value (U87MG; [6]) was 1140000000 and 112000000 and 171000000 and 820000000 and 161000000 and 1140000 and the Mouse weight (U87MG; [7]) was 19.5 g and 24.1 g and 23.9 g and 23.1 g. The “Tumor size (measured by bioluminescence)” value (U87MG; [7]) was 6750000000 and 1500000000 and 1360000000 and 47000000 and 739000000, the Mouse survival (U87MG; U87MG-Luc, individual mice) was 25 days and 21 days and 28 days and 23 days and the “p-4EBP1 Brain, fold relative to no insulin, normalized to GAPDH” value (mTOR [2]; 4h) was 1.83 and 2 and 1.39. For the same molecule, the “p-4EBP1 Muscle, fold relative to no insulin, normalized to GAPDH” value (mTOR [2]; 4h) was 1.7 and 2.09 and 1.93, the “p-RPS6 Brain, fold relative to no insulin, normalized to GAPDH” value (mTOR [2]; 4h) was 1.92 and 2.13 and 3 and the “p-RPS6 Muscle, fold relative to no insulin, normalized to GAPDH” value (mTOR [2]; 4h) was 2.39 and 2.47 and 2.32. For the same molecule, the “p-4EBP1 Brain, fold relative to no insulin, normalized to GAPDH” value (mTOR [2]; 24h) was 1.46 and 1.83 and 1.26, the “p-4EBP1 Muscle, fold relative to no insulin, normalized to GAPDH” value (mTOR [2]; 24h) was 2.04 and 2.08 and 2.19 and the “p-RPS6 Brain, fold relative to no insulin, normalized to GAPDH” value (mTOR [2]; 24h) was 1.78 and 1.76 and 3.3. For the same molecule, the “p-RPS6 Muscle, fold relative to no insulin, normalized to GAPDH” value (mTOR [2]; 24h) was 3.51 and 2.13 and 2.07, the “tissue-specific protection from RapaLink-1 (in vivo screen)” value (mTOR [2]; RapaLink-1 1 mg per kg + candidate 40 mg per kg) was “protected peripheral tissues from RapaLink-1 but allowed potent inhibition of mTOR in the brain” and the Mouse weight (GBM43; day 0, individual mice) was 22.5 g and 18.4 g and 23.4 g and 24.1 g and 22.4 g and 24.3 g. The “Tumor size (measured by bioluminescence)” value (GBM43; day 0, individual mice) was 545000 and 240000 and 88600 and 6780000 and 3240000 and 1560000, the Mouse weight (GBM43; day 4, individual mice) was 22.5 g and 20 g and 24 g and 25.1 g and 23.3 g and 25 g and the “Tumor size (measured by bioluminescence)” value (GBM43; day 4, individual mice) was 550000 and 781000 and 188000 and 20000000 and 920000 and 2990000. For the same molecule, the Mouse weight (GBM43; day 7, individual mice) was 22 g and 20 g and 25 g (2×) and 23.4 g and 25.8 g, the “Tumor size (measured by bioluminescence)” value (GBM43; day 7, individual mice) was 42300000 and 19300000 and 2230000 and 1130000000 and 47100000 and 178000000 and the Mouse weight (GBM43; day 10, individual mice) was 21.7 g and 19.6 g and 24.5 g and 24.8 g (2×) and 22.7 g. For the same molecule, the “Tumor size (measured by bioluminescence)” value (GBM43; day 10, individual mice) was 782000000 and 3210000 and 104000000 and 3810000000 and 1590000000 and 1220000000, the Mouse survival (GBM43; individual mice) was 16 days and 17 days and 18 days and the “fluorescence polarization (competition, raw)” value (from here on “fluorescence polarization”) (FKBP12; 0.0976562 nM compound) was 114 and 112. The “fluorescence polarization” value (FKBP12; 0.195312 nM compound) was 114 and 112, the “fluorescence polarization” value (FKBP12; 0.390625 nM compound) was 112 and 110 and the “fluorescence polarization” value (FKBP12; 0.78125 nM compound) was 110 and 109. For the same molecule, the “fluorescence polarization” value (FKBP12; 1.5625 nM compound) was 109, the “fluorescence polarization” value (FKBP12; 3.125 nM compound) was 100 and 104 and the “fluorescence polarization” value (FKBP12; 6.25 nM compound) was 86 and 88. For the same molecule, the “fluorescence polarization” value (FKBP12; 12.5 nM compound) was 74, the “fluorescence polarization” value (FKBP12; 25 nM compound) was 64 and 62 and the “fluorescence polarization” value (FKBP12; 50 nM compound) was 56 and 58. For the same molecule, the “fluorescence polarization” value (FKBP12; 100 nM compound) was 46 and 55, the Ki (FKBP12; Extended Data Fig. 4b, n = 3, read-out: Ki(FKBP12)) was 1.4 nM and the Ki (FKBP12; Fig. 2d, fluorescein-labelled rapamycin tracer, read-out: FKBP12 Ki) was 3.1 nM. For the same molecule, the Kd (FKBP12; measured in-house in a single fluorescence polarization experiment, read-out: Kd3 (RapaBlock binding to FKBP)) was 2.5 nM and the Kd (FKBP12; recombinant FKBP12, Extended Data Fig. 2, read-out: Kd (FKBP12)) was 1.6 nM.
